Each structure is given as a SMILES string. Like-named read-outs stand apart in the source and are kept apart here.

These results are taken from US20250034125A1, “COMPOUNDS AND USES THEREOF” (JANSSEN PHARMACEUTICA NV, priority 2019, published 2025).

In assay [1] the target is T1, SCD5 (Homo sapiens, UniProt Q86SK9).
T1 construct: host or cells: Saccharomyces cerevisiae ole1Δ strain (W303 pdr1Δ pdr3Δ background), plasmid pRS316, TDH3 promoter
T1 sequence (Q86SK9 1-330): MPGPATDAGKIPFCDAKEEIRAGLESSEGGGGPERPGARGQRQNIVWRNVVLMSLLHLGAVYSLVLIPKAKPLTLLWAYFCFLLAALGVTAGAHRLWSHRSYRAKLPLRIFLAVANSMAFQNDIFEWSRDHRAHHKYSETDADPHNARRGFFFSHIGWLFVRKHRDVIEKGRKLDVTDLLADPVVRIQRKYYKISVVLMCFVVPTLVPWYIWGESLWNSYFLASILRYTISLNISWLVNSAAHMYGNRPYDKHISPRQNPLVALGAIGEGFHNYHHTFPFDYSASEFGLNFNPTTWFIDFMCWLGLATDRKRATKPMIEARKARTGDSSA
The assay can be described thus: Growth inhibition of yeast (ole1Δ) expressing human SCD5 as the sole desaturase. In kind it is cell-based.

In assay [2] the target is T2, SCD1 (Homo sapiens, UniProt O00767).
T2 construct: host or cells: Saccharomyces cerevisiae ole1Δ strain (W303 pdr1Δ pdr3Δ background), plasmid pRS316, TDH3 promoter
T2 sequence (O00767 1-359): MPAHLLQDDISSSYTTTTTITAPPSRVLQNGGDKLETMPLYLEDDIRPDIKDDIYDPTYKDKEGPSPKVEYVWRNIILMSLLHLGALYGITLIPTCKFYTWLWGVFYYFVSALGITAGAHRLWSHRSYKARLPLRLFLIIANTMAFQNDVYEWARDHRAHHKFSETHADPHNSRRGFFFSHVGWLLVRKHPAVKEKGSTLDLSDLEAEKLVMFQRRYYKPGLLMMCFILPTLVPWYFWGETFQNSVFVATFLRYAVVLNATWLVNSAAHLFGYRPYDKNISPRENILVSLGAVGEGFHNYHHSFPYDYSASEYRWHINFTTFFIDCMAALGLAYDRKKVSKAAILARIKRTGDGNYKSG
Kind of assay: Growth inhibition of yeast (ole1Δ) expressing human SCD1 as the sole desaturase. The format is cell-based.

[3] abbreviates: yeast strain with SCD5 plasmid, OD600 growth read at 40 h, read-out: SCD5 IC50.
Setting [4] is: yeast strain with SCD1 plasmid, OD600 growth read at 40 h, read-out: SCD1 IC50.

For the molecule `Cn1nc(NC(=O)N2CCC(Oc3ccccc3)CC2)ccc1=O` [Compound 67, N-(1-methyl-6-oxo-1,6-dihydropyridazin-3-yl)-4-phenoxypiperidine-1-carboxamide], the IC50 is 2.1 µM in assay [1] (setting [3]) and 3.98 µM in assay [2] (setting [4]).
`Cn1nc(NC(=O)N2CCC(Oc3cccc(Cl)c3)CC2)ccc1=O` [Compound 68, 4-(3-chlorophenoxy)-N-(1-methyl-6-oxo-1,6-dihydropyridazin-3-yl)piperidine-1-carboxamide]: the IC50 in assay [1] (setting [3]) was 0.06 µM; in assay [2] (setting [4]), 0.26 µM.
Taken in the same sequence, the figures for `Cn1nc(NC(=O)N2CCC(Oc3ccccc3Cl)CC2)ccc1=O` [Compound 69] were 0.15 µM and 0.42 µM.
Regarding `Cn1nc(NC(=O)N2CCC(Oc3ccc(Cl)cc3)CC2)ccc1=O` [Compound 71], the IC50 in assay [1] (setting [3]) was determined as 4.96 µM; in assay [2] (setting [4]), 13.3 µM.
Turning to `Cc1ccccc1OC1CCN(C(=O)Nc2ccc(=O)n(C)n2)CC1` [Compound 72, N-(1-methyl-6-oxo-1,6-dihydropyridazin-3-yl)-4-(o-tolyloxy) piperidine-1-carboxamide], the IC50 in assay [1] (setting [3]) was 0.28 µM; in assay [2] (setting [4]), 0.43 µM.
The like results for `COc1ccccc1OC1CCN(C(=O)Nc2ccc(=O)n(C)n2)CC1` [Compound 73, 4-(2-methoxyphenoxy)-N-(1-methyl-6-oxo-1,6-dihydropyridazin-3-yl)piperidine-1-carboxamide] were, in that order, 12.5 µM and 31.9 µM.
With `Cn1nc(NC(=O)N2CCC(Oc3cccc(C(F)(F)F)c3)CC2)ccc1=O` [Compound 74, N-(1-methyl-6-oxo-1,6-dihydropyridazin-3-yl)-4-(3-(trifluoromethyl)phenoxy) piperidine-1-carboxamide], the IC50 amounted to 0.04 µM in assay [1] (setting [3]) and 0.02 µM in assay [2] (setting [4]).
Take `Cn1nc(NC(=O)N2CCC(Oc3ccccc3C(F)(F)F)CC2)ccc1=O` [Compound 75, N-(1-methyl-6-oxo-1,6-dihydropyridazin-3-yl)-4-(2-(trifluoromethyl)phenoxy) piperidine-1-carboxamide]: the values for the IC50 in assay [1] (setting [3]) and in assay [2] (setting [4]) were 0.07 µM and 0.22 µM, respectively.
The like results for `Cn1nc(NC(=O)N2CCC(Oc3ccc(C(F)(F)F)cc3)CC2)ccc1=O` [Compound 76, N-(1-methyl-6-oxo-1,6-dihydropyridazin-3-yl)-4-(4-(trifluoromethyl)phenoxy) piperidine-1-carboxamide] were, in that order, 4.8 µM and 9.77 µM.
On to `Cn1nc(NC(=O)N2CCC(Oc3cc(F)cc(F)c3)CC2)ccc1=O` [Compound 79, 4-(3,5-difluorophenoxy)-N-(1-methyl-6-oxo-1,6-dihydropyridazin-3-yl)piperidine-1-carboxamide], for which the IC50 came out at 0.2 µM in assay [1] (setting [3]) and 0.48 µM in assay [2] (setting [4]).
For `Cn1nc(NC(=O)N2CCC(Oc3ccc(F)c(F)c3)CC2)ccc1=O` [Compound 80], the IC50 in assay [1] (setting [3]) was determined as 1.19 µM; in assay [2] (setting [4]), 1.98 µM.
Regarding `Cn1nc(NC(=O)N2CCC(Oc3cccc(Cl)c3Cl)CC2)ccc1=O` [Compound 81, 4-(2,3-dichlorophenoxy)-N-(1-methyl-6-oxo-1,6-dihydropyridazin-3-yl)piperidine-1-carboxamide], the 50% inhibitory concentration (IC50) in assay [1] (setting [3]) turned out to be 0.15 µM; in assay [2] (setting [4]), 0.06 µM.
As to `Cn1nc(NC(=O)N2CCC(Oc3cc(F)ccc3Cl)CC2)ccc1=O` [Compound 82, 4-(2-chloro-5-fluorophenoxy)-N-(1-methyl-6-oxo-1,6-dihydropyridazin-3-yl)piperidine-1-carboxamide], the concentration for half-maximal inhibition (IC50) was 0.02 µM in assay [1] (setting [3]) and 0.05 µM in assay [2] (setting [4]).
For `Cn1nc(NC(=O)N2CCC(Oc3ccc(F)cc3Cl)CC2)ccc1=O` [Compound 83, 4-(2-chloro-4-fluorophenoxy)-N-(1-methyl-6-oxo-1,6-dihydropyridazin-3-yl)piperidine-1-carboxamide], the figures for the concentration for half-maximal inhibition (IC50) in assay [1] (setting [3]) and in assay [2] (setting [4]) were 6.21 µM and 4.36 µM, respectively.
Taken in the same sequence, the figures for `Cn1nc(NC(=O)N2CCC(Oc3cccc(F)c3C(F)(F)F)CC2)ccc1=O` [Compound 84] were 0.17 µM and 0.43 µM.
With `Cn1nc(NC(=O)N2CCC(Oc3ccc(F)cc3C(F)(F)F)CC2)ccc1=O` [Compound 85], the IC50 in assay [1] (setting [3]) was determined as 0.05 µM; in assay [2] (setting [4]) it was 0.08 µM.
Regarding `Cn1nc(NC(=O)N2CCC(Oc3cc(F)ccc3C(F)(F)F)CC2)ccc1=O` [Compound 86, 4-(5-fluoro-2-(trifluoromethyl)phenoxy)-N-(1-methyl-6-oxo-1,6-dihydropyridazin-3-yl)piperidine-1-carboxamide], the 50% inhibitory concentration (IC50) in assay [1] (setting [3]) and in assay [2] (setting [4]) was 0.01 µM in each case.
On to `Cn1nc(NC(=O)N2CCC(Oc3cccc(C#N)c3Cl)CC2)ccc1=O` [Compound 87, 4-(2-chloro-3-cyanophenoxy)-N-(1-methyl-6-oxo-1,6-dihydropyridazin-3-yl)piperidine-1-carboxamide], for which the half-inhibitory concentration (IC50) in assay [1] (setting [3]) and in assay [2] (setting [4]) was above 45 µM each time.
On to `Cn1nc(NC(=O)N2CCC(Oc3ccc(C(F)(F)F)c(F)c3)CC2)ccc1=O` [Compound 88, 4-(3-fluoro-4-(trifluoromethyl)phenoxy)-N-(1-methyl-6-oxo-1,6-dihydropyridazin-3-yl)piperidine-1-carboxamide], for which the IC50 in assay [1] (setting [3]) amounted to 0.03 µM; in assay [2] (setting [4]) it was 0.07 µM.
In the case of `Cn1nc(NC(=O)N2CCC(Oc3cc(F)c(F)c(Cl)c3)CC2)ccc1=O` [Compound 89, 4-(3-chloro-4,5-difluorophenoxy)-N-(1-methyl-6-oxo-1,6-dihydropyridazin-3-yl)piperidine-1-carboxamide], the half-inhibitory concentration (IC50) in assay [1] (setting [3]) was found to be 0.06 µM; in assay [2] (setting [4]), 0.26 µM.
In the case of `Cn1nc(NC(=O)N2CCC(Oc3cc(F)c(F)c(C#N)c3)CC2)ccc1=O` [Compound 90, 4-(3-cyano-4,5-difluorophenoxy)-N-(1-methyl-6-oxo-1,6-dihydropyridazin-3-yl)piperidine-1-carboxamide], the half-maximal inhibitory concentration (IC50) in assay [1] (setting [3]) is 7.18 µM; in assay [2] (setting [4]) it was 10.3 µM.
Taken in the same sequence, the figures for `Cn1nc(NC(=O)N2CCC(Nc3ccccc3C(F)(F)F)CC2)ccc1=O` [Compound 92, N-(1-methyl-6-oxo-1,6-dihydropyridazin-3-yl)-4-(2-(trifluoromethyl)phenylamino) piperidine-1-carboxamide] were 0.39 µM and 2.4 µM.
With `Cn1nc(NC(=O)N2CCC(Nc3cc(F)cc(Cl)c3)CC2)ccc1=O` [Compound 93, 4-((3-chloro-5-fluorophenyl)amino)-N-(1-methyl-6-oxo-1,6-dihydropyridazin-3-yl)piperidine-1-carboxamide], the concentration for half-maximal inhibition (IC50) in assay [1] is 15 µM; in assay [2], above 45 µM.
For the molecule `Cn1nc(NC(=O)N2CCC(Nc3cc(F)cc(F)c3)CC2)ccc1=O` [Compound 94, 4-((3,5-difluorophenyl)amino)-N-(1-methyl-6-oxo-1,6-dihydropyridazin-3-yl)piperidine-1-carboxamide], the IC50 in assay [1] and in assay [2] was above 45 µM each time.
Turning to `CN(c1cc(F)cc(F)c1)C1CCN(C(=O)Nc2ccc(=O)n(C)n2)CC1` [Compound 95], the figures for the IC50 in assay [1] (setting [3]) and in assay [2] (setting [4]) were 12 µM and above 45 µM, respectively.
For the molecule `Cn1nc(NC(=O)N2CCC(OCc3cccc(F)c3)CC2)ccc1=O` [Compound 96, 4-(3-fluorobenzyloxy)-N-(1-methyl-6-oxo-1,6-dihydropyridazin-3-yl)piperidine-1-carboxamide], the concentration for half-maximal inhibition (IC50) in assay [1] (setting [3]) is 26.4 µM; in assay [2] (setting [4]), above 45 µM.
Take `Cn1nc(NC(=O)N2CCC(OCc3ccccc3F)CC2)ccc1=O` [Compound 97, 4-(2-fluorobenzyloxy)-N-(1-methyl-6-oxo-1,6-dihydropyridazin-3-yl)piperidine-1-carboxamide]: the half-maximal inhibitory concentration (IC50) in assay [1] (setting [3]) was 26.1 µM; in assay [2] (setting [4]), above 45 µM.
Taken in the same sequence, the figures for `Cn1nc(NC(=O)N2CCC(COc3ccccc3Cl)CC2)ccc1=O` [Compound 98, 4-((2-chlorophenoxy)methyl)-N-(1-methyl-6-oxo-1,6-dihydropyridazin-3-yl)piperidine-1-carboxamide] were 1.35 µM and 5.18 µM.
`Cn1nc(NC(=O)N2CCC(COc3ccccc3F)CC2)ccc1=O` [Compound 99, 4-((2-fluorophenoxy)methyl)-N-(1-methyl-6-oxo-1,6-dihydropyridazin-3-yl)piperidine-1-carboxamide]: the concentration for half-maximal inhibition (IC50) in assay [1] (setting [3]) stood at 6.87 µM; in assay [2] (setting [4]), 32.5 µM.
The like results for `Cn1nc(NC(=O)N2CCC(COc3ccccc3C(F)(F)F)CC2)ccc1=O` [Compound 100, N-(1-methyl-6-oxo-1,6-dihydropyridazin-3-yl)-4-((2-(trifluoromethyl)phenoxy)methyl)piperidine-1-carboxamide] were, in that order, 0.22 µM and 4.49 µM.
Regarding `Cn1nc(NC(=O)N2CCC(COc3cccc(F)c3)CC2)ccc1=O` [Compound 101, 4-((3-fluorophenoxy)methyl)-N-(1-methyl-6-oxo-1,6-dihydropyridazin-3-yl)piperidine-1-carboxamide], the IC50 in assay [1] (read-out: SCD5 IC50) and in assay [2] (read-out: SCD1 IC50) was above 45 µM each time.

What is called IC50 is the midpoint of a concentration-inhibition curve.
